Results as given in patent publication US20190322643A1 (Georgia State University Research Foundation, Inc., priority 2016, published 2019).

What was measured:
[1] = system: HCT-8; assay: Cytotoxicity / anti-proliferation assay (CCK-8), HCT-8; assay type: cell-based; settings: Homo sapiens, 72 h, CCK-8 kit
Method: (§1) Then the cells were exposed to the different inhibitors with various concentrations for 72 h. […] EC50s were calculated using GraphPad Prizm statistical package with sigmoidal variable slope dose response curve fit.
(§2) Cell anti-proliferation assays were performed to determine the toxicity of these inhibitors. […] These compounds were further evaluated against the control cell line HEK293 to test their toxicity with a non-cancerous cell line.

[2] = system: HDAC; assay: Cell based homogenous HDAC assay, A549; settings: read-out: IC50-HDAC A549; A549 cells, mean ± SD of triplicate
Method: (§3) After 24 h, 9 μl inhibitors with different concentration were added to the HeLa cells and incubation was continued for 3 h under cell culture conditions. After this treatment period, 10 μl of a 2 mM stock solution of the substrate Boc-K(Ac)-AMC was added into the 96 well plates with Hela cells and inhibitors. […] A549 and K562 cell lines used the same method, respectively. IC50s were calculated using GraphPad Prizm statistical package with sigmoidal variable slope dose response curve fit.
(§4) Boc-K(Ac)-AMC was used as a cell-permeable HDAC substrate, as after deacetylation it is cleaved by trypsin to release the florescent 7-amino-4-methylcoumarin (AMC).

[3] = molecular target: T1, Mouse histone methyltransferase G9a (969-1263) (Mus musculus, UniProt Q9Z148); assay: MALDI-TOF methylation study of G9a inhibition; assay type: biochemical; settings: inhibitors at 5 μM concentration for 30 min
T1 construct: The 6His-sumo mG9a (969-1263) protein was purified using the following procedure; 6His-sumo (cleaved yes); made in house; host or cells: Escherichia coli BL21 (DE3)
T1 sequence (Q9Z148 969-1263): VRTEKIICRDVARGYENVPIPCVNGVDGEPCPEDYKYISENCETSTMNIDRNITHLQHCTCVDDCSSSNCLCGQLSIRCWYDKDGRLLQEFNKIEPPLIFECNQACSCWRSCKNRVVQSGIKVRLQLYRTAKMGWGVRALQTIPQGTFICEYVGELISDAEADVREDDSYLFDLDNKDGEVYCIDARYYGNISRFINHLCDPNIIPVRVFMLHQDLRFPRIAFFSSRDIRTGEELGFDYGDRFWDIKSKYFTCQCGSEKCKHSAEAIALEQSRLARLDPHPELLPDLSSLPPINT
Method: Mouse histone methyltransferase G9a (969-1263) cDNA was amplified from the cDNA of BALB/c mouse thymus, and the fragment was sub-cloned into a vector with a 6His-sumo tag. […] The 6His-sumo mG9a (969-1263) protein was purified using the following procedure: harvested cell pellet was re-suspended in 20 mM Tris (pH 8.0), 500 mM NaCl, 0.1% β-mercaptoethanol, and 1 mM PMSF. Cells were lysed by sonicating for 15 seconds with 6 second intervals for a total time of 15 minutes on an ice bath. […] The 6His-sumo tag was cleaved from the column by adding Ubiquitin-like-specific protease 1 (ULP-1) at 4° C. for 12 hours. Wash buffer was then run through the Ni^+ column again and the elution buffer collected. Subsequently, advanced protein purification was done by HiTrap Q HP sequential Superdex 200 10/300 GL. Elute of every step was analyzed by SDS PAGE, stained by Coomassie brilliant blue (CBB). […] The reaction was incubated at room temperature for 30 min, and stopped by TFA. 1 μL of the sample was mixed with CHCA matrix and m/z peaks were obtained at reflection positive mode. The results of mass spectrum were analyzed using the Bruker flex analysis software and data processing was carried out as described below. MALDI-TOF based experiments were performed according to the protocol developed by Chang et al. (Nat. Struct. Mol. Biol. 2009, 16, 312-317). MALDI spectra were collected using Bruker flex control software and analyzed by flex analysis. After labelling each cluster peaks of H3K9Me0, H3K9Me1 and H3K9Me2 for all of the tested concentrations, area under the cluster (AUC) were extracted by using the same flex analysis software. % abundance of each peak was calculated by following formula: A=% Abundance of (H3K9Me0)=area of H3K9Me0/(area of H3K9Me0+area of H3K9Me1+area of H3K9Me2) B=% Abundance of (H3K9Me1)=area of H3K9Me1/(area of H3K9Me0+area of H3K9Me1+area of H3K9Me2) C=% Abundance of (H3K9Me2)=area of H3K9Me2/(area of H3K9Me0+area of H3K9Me1+area of H3K9Me2). This was repeated for each spectra (3 multiples for each samples). […] Finally % inhibition was found by subtracting % MA(i) from 100. […] A biochemical assay using MALDI-TOF was used to visualize the effects of the synthesized compounds on G9a enzymatic activity. […] Struct. Mol. Biol. 2009, 16, 312-317).

[4] = system: A549; assay: Cytotoxicity / anti-proliferation assay (CCK-8), A549; assay type: cell-based; settings: Homo sapiens, 72 h, CCK-8 kit
Method: as §1, §2

[5] = system: HDAC; assay: Cell based homogenous HDAC assay, K562; settings: read-out: IC50-HDAC K562; K562 cells, mean ± SD of triplicate
Method: as §3, §4

[6] = molecular target: T2, G9a (Homo sapiens, UniProt Q96KQ7); assay: H3K9Me2 cell immunofluorescence in-cell Western (ICW) assay; assay type: cell-based; settings: MDA-MB-231 cell line, 48 h
T2 construct: endogenous in cells; host or cells: MDA-MB-231
T2 sequence (Q96KQ7 1-1210): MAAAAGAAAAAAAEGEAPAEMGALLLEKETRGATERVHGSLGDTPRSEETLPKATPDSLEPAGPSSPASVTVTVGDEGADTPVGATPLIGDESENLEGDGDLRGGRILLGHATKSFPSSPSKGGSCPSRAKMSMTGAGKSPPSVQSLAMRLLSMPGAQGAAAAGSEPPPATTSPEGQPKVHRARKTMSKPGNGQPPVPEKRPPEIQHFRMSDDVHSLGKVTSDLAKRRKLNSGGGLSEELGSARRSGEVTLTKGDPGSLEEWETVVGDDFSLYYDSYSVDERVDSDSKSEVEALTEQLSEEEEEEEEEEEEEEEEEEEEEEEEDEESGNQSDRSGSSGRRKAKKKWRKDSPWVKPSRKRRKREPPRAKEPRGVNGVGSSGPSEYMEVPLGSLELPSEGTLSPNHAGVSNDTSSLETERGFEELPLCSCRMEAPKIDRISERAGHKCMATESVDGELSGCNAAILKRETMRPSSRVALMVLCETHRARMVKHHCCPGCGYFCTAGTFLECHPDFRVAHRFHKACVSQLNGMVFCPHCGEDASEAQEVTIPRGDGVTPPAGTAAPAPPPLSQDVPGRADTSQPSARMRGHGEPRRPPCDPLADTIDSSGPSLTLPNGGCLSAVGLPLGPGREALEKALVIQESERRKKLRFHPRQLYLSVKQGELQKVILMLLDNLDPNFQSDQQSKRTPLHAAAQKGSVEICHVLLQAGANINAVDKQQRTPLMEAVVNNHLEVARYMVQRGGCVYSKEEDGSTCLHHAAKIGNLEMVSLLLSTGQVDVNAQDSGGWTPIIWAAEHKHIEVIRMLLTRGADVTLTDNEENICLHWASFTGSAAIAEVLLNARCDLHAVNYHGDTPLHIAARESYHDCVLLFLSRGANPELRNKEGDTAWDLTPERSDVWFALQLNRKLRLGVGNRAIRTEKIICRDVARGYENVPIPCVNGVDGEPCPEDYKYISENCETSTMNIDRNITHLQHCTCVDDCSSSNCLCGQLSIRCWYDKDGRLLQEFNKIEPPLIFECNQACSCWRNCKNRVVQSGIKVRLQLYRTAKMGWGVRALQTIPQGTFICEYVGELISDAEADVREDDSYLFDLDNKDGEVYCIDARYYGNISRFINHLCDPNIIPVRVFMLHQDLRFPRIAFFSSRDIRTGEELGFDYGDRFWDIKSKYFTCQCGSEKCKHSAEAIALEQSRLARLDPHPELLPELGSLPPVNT
Method: After the incubation, the media was removed and 100 μl fixation and permeabilization solution (2% formaldehyde in PBS) for fixation was added for 30 min. And then use 200 μl 0.1% Triton X100 in PBS washing solution to wash (allow wash to shake on a plate shaker for 5 minutes). After five washes, cells were blocked for 1 h with 150 μl blocking buffer to each well (1% BSA in PBS) (allow blocking at RT with moderate shaking on a plate shaker). After 1 h, remove the blocking buffer from the blocking step and add primary antibody in blocking buffer to cover the bottom of each well. […] The plates were read on an Odyssey CLX (LiCor) scanner at both 800 nm (H3K9me2 signal) and 700 nm (cell tag 700 stain signal) channels. IC50s were calculated using GraphPad Prizm statistical package with sigmoidal variable slope dose response curve fit.

[7] = system: HDAC; assay: Cell based homogenous HDAC assay, Hela; settings: read-out: IC50-HDAC Hela; Hela cells, mean ± SD of triplicate
Method: as §3, §4

IC50 [2] [µM]	inhibition at 5 µM [3] [%]	IC50 [5] [µM]	IC50 [6] [µM]	IC50 [7] [µM]	SMILES	EC50 [1] [µM]	EC50 [4] [µM]
> 100	15 ± 15.7	> 100	54.6 ± 3.05	> 100	COc1cc2nc(NCCNC(=O)CCCC(=O)NO)nc(NC3CCN(C(C)C)CC3)c2cc1OC [Compound 7a, N1-hydroxy-N5-(2-((4-((1-isopropylpiperidin-4-yl)amino)-6,7-dimethoxyquinazolin-2-yl)amino)ethyl)glutaramide]	> 100	> 100
> 100	35.6 ± 0.88	> 100	27.4 ± 3.59	> 100	COc1cc2c(NC3CCN(C(C)C)CC3)nc(N3CCCN(C)CC3)nc2cc1OCCCCCCC(=O)NO [Compound 26, N-hydroxy-7-((4-((1-isopropylpiperidin-4-yl)amino)-6-methoxy-2-(4-methyl-1,4-diazepan-1-yl)quinazolin-7-yl)oxy)heptanamide]	> 100	> 100
> 100	26.6 ± 11.3	> 100	> 100	> 100	COc1cc2nc(NCCNC(=O)CCCCC(=O)NO)nc(NC3CCN(C)CC3)c2cc1OC [Compound 6, N1-(2-((6,7-dimethoxy-4-((1-methylpiperidin-4-yl)amino)quinazolin-2-yl)amino)ethyl)-N6-hydroxyadipamide]	> 100	> 100
> 100	47.5 ± 9.32	> 100	66.6 ± 3.98	> 100	COc1cc2nc(NCCNC(=O)CCCCCC(=O)NO)nc(NC3CCN(C(C)C)CC3)c2cc1OC [Compound 5a, N1-hydroxy-N7-(2-((4-((1-isopropylpiperidin-4-yl)amino)-6,7-dimethoxyquinazolin-2-yl)amino)ethyl)heptanediamide]	> 100	> 100
> 100	19.6 ± 20.9	> 100	76.7 ± 0.89	> 100	COc1cc2nc(NCCNC(=O)CCCC(=O)NO)nc(NC3CCN(C)CC3)c2cc1OC [Compound 7, N1-(2-((6,7-dimethoxy-4-((1-methylpiperidin-4-yl)amino)quinazolin-2-yl)amino)ethyl)-N5-hydroxyglutaramide]	> 100	> 100
> 100	50.6 ± 16.5	> 100	> 100	> 100	COc1cc2nc(NCCNC(=O)CCCCC(=O)NO)nc(NC3CCN(C(C)C)CC3)c2cc1OC [Compound 6a, N1-hydroxy-N6-(2-((4-((1-isopropylpiperidin-4-yl)amino)-6,7-dimethoxyquinazolin-2-yl)amino)ethyl)adipamide]	> 100	> 100
> 100	11.2 ± 3.68	> 100	74.2 ± 1.94	> 100	COc1cc2nc(NCCNC(=O)CCCCCCC(=O)NO)nc(NC3CCN(C(C)C)CC3)c2cc1OC [Compound 4a, N1-hydroxy-N8-(2-((4-((1-isopropylpiperidin-4-yl)amino)-6,7-dimethoxyquinazolin-2-yl)amino)ethyl)octanediamide]	> 100	> 100
> 100	65 ± 1.95	> 100	> 100	> 100	COc1cc2nc(NCCNC(=O)CCCCCC(=O)NO)nc(NC3CCN(C)CC3)c2cc1OC [Compound 5, N1-(2-((6,7-dimethoxy-4-((1-methylpiperidin-4-yl)amino)quinazolin-2-yl)amino)ethyl)-N7-hydroxyheptanediamide]	> 100	> 100
> 100	27 ± 12.2	> 100	96.7 ± 1.68	> 100	COc1cc2nc(NCCNC(=O)CCCCCCC(=O)NO)nc(NC3CCN(C)CC3)c2cc1OC [Compound 4, N1-(2-((6,7-dimethoxy-4-((1-methylpiperidin-4-yl)amino)quinazolin-2-yl)amino)ethyl)-N8-hydroxyoctanediamide]	> 100	> 100
